Measurements: US6528496B1, “Compositions treating, preventing or reducing elevated metabolic levels” (priority 1992, dated 2003)
Entries after “also recorded” stand apart in the source; their conditions may differ.

Legend:
serum MMA and HC [1] = experiment: Parenteral B12 treatment of geriatric outpatients with low and low/normal serum B12, response of serum MMA and HC (Example 3); assay type: in vivo, human; conditions: weekly injections of 1.0 mg B12
Procedure: A study was conducted with 152 elderly outpatient subjects to measure the prevalence of B12 deficiency in geriatric outpatients as determined by both low serum B12 levels and elevations of MMA and HC, and to determine the response to B12 treatment. Blood samples were obtained on 152 consecutive geriatric outpatients, ages 65-99. Control values were determined from 100 subjects, ages 17-65. The significance of the results marked as “**” in Table 2 are as follows: B12 levels of<200 pg/ml; folate<3.8 ng/ml; homocysteine>16.2 uM; MMA>271 nM; CT>342 nM; and 2-MCA>228 nM. Serum MMA, HC, CT, and 2-MCA levels were measured as described in Example 1. Serum B12 and folate were measured as described in Example 1 using a Corning Immophase kit (CIBA-Corning, Medfield, Mass.) with the normal range defined as 200-800 pg/ml for B12 and 3.8 ng/ml for folate. After evaluation, patients received weekly parenteral cyanocobalamin injections (1,000 ug IM) for 8 weeks, followed by monthly injections. Repeat laboratory and clinical assessments were administered at 8 weeks and at 6 months.
Patients with low and low/normal serum B12 levels were treated with weekly injections of 1.0 mg B12. […] It appears that the true prevalence of previously unrecognized B12 deficiency in this elderly population was at least 14.5%.

serum MMA and HC [2] = experiment: Parenteral B12 treatment of geriatric nursing home patients with serum B12<300 pg/ml, response of serum MMA and HC (Example 4); assay type: in vivo, human
Procedure: A study was conducted with 212 elderly nursing home patients to determine serum B12, folate, MMA, and HC levels (Table 3). The significance of the results shown in Table 3 marked with “**” are as described for Table 2 (Example 3). The control group consisted of 100 subjects between the ages of 17-65 years.

[3] = 2.0 mg oral dose, in the absence of intrinsic factor; cited from earlier work
[4] = parenteral 1 mg per week for 8 weeks, nursing home patients with serum B12<300 pg/ml

cyanocobalamin [B12]
effect on elevated metabolite levels (serum MMA and HC, FIGS. 4 and 5) (serum MMA and HC [1]): fall to or towards normal; also recorded: did not fully respond | effect on elevated serum HC levels (FIG. 10) (serum MMA and HC [2]; [4]): fall to or towards normal | effect on elevated serum MMA levels (FIG. 9) (serum MMA and HC [2]; [4]): fall to or towards normal | response of elevated metabolite levels to B12 treatment (serum MMA and HC [2]; some of the nursing home patients with elevated metabolite levels): did not fully respond | fraction of oral dose absorbed by diffusion [3]: approximately 1%
